Measurements from US5877210A, “Phosphotyrosine phosphatase inhibitors or phosphotyrosine kinase activators for controlling cellular proliferation” (priority 1995, dated 1999).
Entries after “also recorded” stand apart in the source; their conditions may differ. Like-named read-outs stand apart in the source and are kept apart here.

What was measured:
[1] = tested on: CEM; format: cell-based, human
Description: The extent to which the T cells were being killed by BMLOV treatment relative to the Ramos B cells was therefore examined. […] The percentage of cells in each quadrant is indicated. The lower right quadrant contains the viable cells.

[2] = tested on: A20; experiment: [3H]thymidine incorporation assay; format: cell-based, murine; conditions: for [3H]-thymidine radioactivity incorporated: 5 days; for [3H]cpm incorporation: seven days
Experimental: (§1) For each cell type, the cells were passaged uniformly for all drug doses given during the seven-day period. The cells were then pulsed for six hours with [^3 H]thymidine. The extent of DNA synthesis was then determined by counting the radioactivity incorporated into the cells.
(§2) For assays of cellular proliferation, cells were grown five days in the presence of the indicated concentrations of BMLOV, pulsed 6 hr with [^3 H]-thymidine (New England Nuclear, Boston, Mass.), and counted in a liquid scintillation counter. Human peripheral blood lymphocytes (PBL) from normal volunteers were isolated from lymphocyte separation medium (Litton Bionetics, Kensington, Md.) by density gradient centrifugation. Monocytes were depleted from PBL by two rounds of plastic absorption for 30 minutes at 37° C. B cells were enriched for by negative selection using complement plus monoclonal antibodies to CD2, CD3, CD4, and CD8 for complement depletion. Clonogenic assays of colony formation in methylcellulose medium were performed as previously described (F. M. Uckun et al. (1992), supra).
The cell lines A20, 70Z-3, L1210, and P388D were used. A20 is a B cell lymphoma cell line; 70Z/3 is a B cell leukemia cell line; L1210 is a T cell leukemia cell line; and P388D is a myeloid leukemia cell line. The cells were grown for 5 days in the presence of pV(phen) and pulsed with [^3 H]-thymidine on day 5. The extent of DNA synthesis was then determined by counting the radioactivity incorporated into the cells, as in Example 5, supra. […] The effects on L1210 cells and P388D cells are particularly noteworthy because these cell lines have been extensively used by the National Cancer Institute to identify anti-cancer drugs.

[3] = tested on: Syk tyrosine kinase; experiment: Syk tyrosine phosphorylation (anti-Syk immunoprecipitate, anti-phosphotyrosine blot) in Ramos B cells; format: cell-based, human; conditions: 16 hours, no antigen receptor stimulation
Experimental: BMLOV is known to inhibit Src-family tyrosine kinases. […] Ramos B cells were treated with the indicated concentrations of BMLOV or pV(phen) for 16 hours. The cells were then lysed and the Syk tyrosine kinase was immunoprecipitated with anti-Syk antibodies. The tyrosine phosphorylation of Syk was examined by an anti-phosphotyrosine Western blot of the immunoprecipitated Syk protein following SDS-polyacrylamide gel electrophoresis (shown at left). The amount of Syk protein recovered was determined by anti-Syk Western blotting of identical samples (shown at right).
In the experiments shown in FIG. 23, cells were treated 16 h with BMLOV and then stimulated with α-μ for 5 min. Cells were then washed and resuspended in fresh media at equal concentrations of BMLOV at 37° C. Cells were harvested and lysted at times following the initiation of α-μ stimulation as indicated. Antibody binding in immunoblots was detected by ECL.

[4] = tested on: Ramos; experiment: [3H]thymidine incorporation assay; format: cell-based, human; conditions: for [3H]cpm incorporation: seven days
Experimental: as §1, §2
The effect of the variation of treatment time with pV(phen) on the inhibition of proliferation in Ramos cells is shown in Table 11. These cells were grown in pV(phen) for the indicated times, washed, and then grown in fresh media for the balance of the 5-day assay. These cells were pulsed with [^3 H]-thymidine on day 5.

[5] = tested on: Ramos cells; experiment: Anti-phosphotyrosine western blot of cell lysates; format: cell-based, human
[6] = tested on: Jurkat; experiment: Anti-phosphotyrosine immunoblot; format: cell-based, human
[7] = tested on: HL-60; experiment: Clonogenic assay in methylcellulose; format: cell-based, human; conditions: for colonies formed: seven days
Experimental: (§3) The selective cytotoxicity of BMLOV was examined in clonogenic assays. Cells were grown in methylcellulose media and the number of colonies formed after seven days of treatment with various doses of the drug were determined. The clonogenic assays were performed with six replicates for each treatment as described [F. M. Uckun et al., J. Exp. Med. 163:347-368 (1986); F. M. Uckun & J. A. Ledbetter, Proc. Natl. Acad. Sci. USA 85:8603-8607 (1988)). The data is given plus/minus the standard error of the mean.
as §2

[8] = tested on: THP-1; experiment: Clonogenic assay in methylcellulose; format: cell-based, human; conditions: for colonies formed: seven days
Experimental: as §3, §2

[9] = tested on: Raji; experiment: Clonogenic assay in methylcellulose; format: cell-based, human; conditions: for colonies formed: seven days
Experimental: as §3, §2

[10] = tested on: Ramos; experiment: Clonogenic assay in methylcellulose; format: cell-based, human; conditions: Ramos; for colonies formed: seven days
Experimental: as §3, §2

[11] = tested on: T cells; experiment: Anti-phosphotyrosine immunoblot of T cell lysates, basal and anti-CD3 stimulated; format: cell-based; conditions: 16 h, even at 50 μM BMLOV
Experimental: In the experiments shown in FIG. 25, human PHA-induced T cell blasts were treated overnight with the indicated concentrations of BMLOV. In Panel A, the baseline level of intracellular free Ca^2+ ([Ca^2+ ]i) was established for 1 min, and then the cells were treated with biotinylated anti-CD3 mAb (G19-4). After 5 min avidin was added (gap in the trace) to cross-link the antibody. In Panel B, assays were performed as in Panel A, but in the presence of 5 mM EGTA. […] In the experiments shown in FIG. 26, cells were treated 16 h with BMLOV and then stimulated with anti-CD3 mAb G19-4 for 5 min. Cells were then washed and resuspended in fresh media at equal concentrations of BMLOV at 37° C. Cells were then harvested and lysed at times following the initiation of CD3 stimulation as indicated. Antibody binding in immunoblots was detected by ECL.

[Na+].[O]=[V-]12([O][O]1)[O][O]2.c1cnc2c(c1)ccc1cccnc12 [pV(phen), sodium (1,10-phenanthroline) oxodiperoxovanadium (V)]
cells killed ([1]; CEM, 10 μM pV(phen), three days): all the cells | cells killed ([1]; human, cem cells, 48 h, 10 µM): 98% | [3H]-thymidine radioactivity incorporated ([2]; 5 μM pV(phen)): 73 ± 23 | [3H]-thymidine radioactivity incorporated ([2]; 10 μM pV(phen)): 76 ± 48 | tyrosine phosphorylation of Syk [3]: strongly induces tyrosine phosphorylation of the Syk tyrosine kinase | [3H] Thymidine Incorporation ([4]; 1 μM pV(phen) for 4 hr, then fresh media to day 5): 540438 ± 86014 cpm | [3H] Thymidine Incorporation ([4]; 1 μM pV(phen) for 8 hr, then fresh media to day 5): 444806 ± 20361 cpm | [3H] Thymidine Incorporation ([4]; 1 μM pV(phen) for 24 hr, then fresh media to day 5): 396533 ± 16116 cpm | [3H] Thymidine Incorporation ([4]; 1 μM pV(phen) for 5 d): 1969 ± 1295 cpm | inhibition of proliferation ([4]; 1 μM pV(phen), full 5-day treatment): ≥ 99% | [3H] Thymidine Incorporation ([4]; 5 μM pV(phen) for 4 hr, then fresh media to day 5): 502956 ± 20963 cpm | [3H] Thymidine Incorporation ([4]; 5 μM pV(phen) for 8 hr, then fresh media to day 5): 351849 ± 7357 cpm | [3H] Thymidine Incorporation ([4]; 5 μM pV(phen) for 24 hr, then fresh media to day 5): 312 ± 83 cpm | [3H] Thymidine Incorporation ([4]; 5 μM pV(phen) for 5 d): 615 ± 268 cpm | [3H] Thymidine Incorporation ([4]; 10 μM pV(phen) for 4 hr, then fresh media to day 5): 554511 ± 10077 cpm | [3H] Thymidine Incorporation ([4]; 10 μM pV(phen) for 8 hr, then fresh media to day 5): 185021 ± 11112 cpm | [3H] Thymidine Incorporation ([4]; 10 μM pV(phen) for 24 hr, then fresh media to day 5): 1862 ± 1461 cpm | [3H] Thymidine Incorporation ([4]; 10 μM pV(phen) for 5 d): 982 ± 519 cpm | [3H] Thymidine Incorporation ([4]; 25 μM pV(phen) for 4 hr, then fresh media to day 5): 433034 ± 74272 cpm | [3H] Thymidine Incorporation ([4]; 25 μM pV(phen) for 8 hr, then fresh media to day 5): 877 ± 93 cpm | [3H] Thymidine Incorporation ([4]; 25 μM pV(phen) for 24 hr, then fresh media to day 5): 399 ± 231 cpm | [3H] Thymidine Incorporation ([4]; 25 μM pV(phen) for 5 d): 651 ± 295 cpm | proteins tyrosine phosphorylated, compared with BMLOV ([5]; 16 hours, particularly at 10 μM): causes the tyrosine phosphorylation of a significantly larger group of proteins than does BMLOV | induction of tyrosine phosphorylation by pV(phen) ([5]; Ramos B cells, 16 hours): high level of tyrosine phosphorylation | induction of tyrosine phosphorylation by pV(phen) ([6]; Jurkat T cells, 16 hours): high level of tyrosine phosphorylation

Cc1occc(=O)c1[O-].Cc1occc(=O)c1[O-].[O]=[V+2] [BMLOV, Bis(maltolato)oxovanadium (IV)]
killing by BMLOV, in words ([1]; CEM, 25 μM BMLOV, 4 days): resistant to killing | percentage of inhibition of clonogenic growth ([7]; 1 μM BMLOV): 99.4% | colonies formed ([7]; 1 μM BMLOV): 31 ± 8 colonies per 10^4 cells | percentage of inhibition of clonogenic growth ([7]; 5 μM BMLOV): 99.4% | colonies formed ([7]; 5 μM BMLOV): 31 ± 8 colonies per 10^4 cells | percentage of inhibition of clonogenic growth ([7]; 10 μM BMLOV): 99.7% | colonies formed ([7]; 10 μM BMLOV): 15 ± 4 colonies per 10^4 cells | percentage of inhibition of clonogenic growth ([8]; 1 μM BMLOV): 75.0% | colonies formed ([8]; 1 μM BMLOV): 1613 ± 235 colonies per 10^4 cells | percentage of inhibition of clonogenic growth ([8]; 5 μM BMLOV): 98.0% | colonies formed ([8]; 5 μM BMLOV): 127 ± 35 colonies per 10^4 cells | percentage of inhibition of clonogenic growth ([8]; 10 μM BMLOV): 98% | colonies formed ([8]; 10 μM BMLOV): 127 ± 35 colonies per 10^4 cells | percentage of inhibition of clonogenic growth ([9]; 1 μM BMLOV): 60.3% | colonies formed ([9]; 1 μM BMLOV): 1291 ± 283 colonies per 10^4 cells | percentage of inhibition of clonogenic growth ([9]; 5 μM BMLOV): 99.9% | colonies formed ([9]; 5 μM BMLOV): 4 ± 0.6 colonies per 10^4 cells | colonies formed ([9]; 10 μM BMLOV): 3 ± 0.8 colonies per 10^4 cells | percentage of inhibition of clonogenic growth ([10]; 1 μM BMLOV): 95.6% | colonies formed ([10]; 1 μM BMLOV): 179 ± 33 colonies per 10^4 cells | percentage of inhibition of clonogenic growth ([10]; 5 μM BMLOV): 99.8% | colonies formed ([10]; 5 μM BMLOV): 7 ± 2 colonies per 10^4 cells | percentage of inhibition of clonogenic growth ([10]; 10 μM BMLOV): greater than 99.9% | colonies formed ([10]; 10 μM BMLOV): 0 colonies per 10^4 cells | [3H]cpm incorporation ([2]; 1 μM BMLOV): 419947 cpm | [3H]cpm incorporation ([2]; 5 μM BMLOV): 289932 cpm | [3H]cpm incorporation ([2]; 10 μM BMLOV): 66157 cpm | [3H]cpm incorporation ([2]; 25 μM BMLOV): 281 cpm | sensitivity of proliferation to BMLOV, in words ([2]; 25 μM, 5 or 7 days): very sensitive; also recorded: highly sensitive | tyrosine phosphorylation of Syk [3]: only very slight tyrosine phosphorylation of Syk; also recorded: induced tyrosine phosphorylation of Syk in a dose-dependent manner | basal or T cell receptor induced cellular tyrosine phosphorylation [11]: little effect on basal or T cell receptor induced cellular tyrosine phosphorylation | [3H]cpm incorporation ([4]; 1 μM BMLOV): 289936 cpm | [3H]cpm incorporation ([4]; 5 μM BMLOV): 65545 cpm | [3H]cpm incorporation ([4]; 10 μM BMLOV): 167 cpm | [3H]cpm incorporation ([4]; 25 μM BMLOV): 149 cpm | sensitivity of proliferation to BMLOV, in words ([4]; 10 and 25 μM, 5 or 7 days): highly sensitive | level of tyrosine phosphorylation ([5]; 50 μM BMLOV, 16 hours): high levels of tyrosine phosphorylation | time at which tyrosine phosphorylation begins ([5]; 100 μM BMLOV): ≤ 8 min | induction of tyrosine phosphorylation compared with sodium orthovanadate ([5]; 100 μM each, 30 min): more potent than orthovanadate | induction of cellular tyrosine phosphorylation ([5]; Ramos B cells, varying doses, 1 hour or 16 h): induces tyrosine phosphorylation in a dose-dependent manner; also recorded: dose-dependent induction of tyrosine phosphorylation | tyrosine phosphorylation response to sIg crosslinking ([5]; particularly at early time points): enhanced the tyrosine phosphorylation response | induction of tyrosine phosphorylation ([6]; 16 hr): only low levels of tyrosine phosphorylation
